# Experimental data published in patent publication US20100291074A1, “CYCLOPHILIN D-AMYLOID BETA INTERACTION POTENTIATES MITOCHONDRIAL DYSFUNCTION IN A TRANSGENIC MOUSE MODEL OF ALZHEIMER'S DISEASE” (COLUMBIA UNIVERSITY IN THE CITY OF NEW YORK, priority 2007, published 2010).
# “Also recorded” adds a separate entry of the source.
# Tested on: cultured cortical neurons
# Assay: Mitochondrial membrane potential (TMRM) in cultured neurons
# Assay type: cell-based, mice
# Details: for TMRM-positive neurons after H2O2: H2O2 one hour, FACS
# Protocol: FIGS. 5. […] (A) Western blot of cultured cortical neuron derived from nonTg and CypD-deficient mice was performed by specific α-CypD IgG. […] (F-G) FACS analysis of TMRM staining in nonTg and CypD−/− neurons treated with increasing concentrations of H2O2 for one hour. (G) Analyses of % TMRM positive neurons combined 3-4 independent experiments. […] (H-I) TMRM staining in H2O2-treated nonTg and CypD−/− neurons as shown by confocal microscopy in live cells. (J-L). FACS analysis of propidium iodide (PI) staining in nonTg and CypD−/−neurons treated with H2O2 for one hour. Percentages of PI-positive and -negative cells were shown as red line and black line, respectively.
# Mitochondrial membrane potential […] was determined in primary cultured neuron derived from nonTg and Tg CypD−/− mice.
# Murine cortical neurons were cultured as described. Briefly, murine cortex were dissected from Day 1 pups of nonTg and Tg CypD−/− mice, dissociated with 0.05% trypsin, and triturated in ice-cold Neurobasal A medium. Cells were then centrifuged at 200 g for 5 min to get rid of the debris. The resulting pellets were resuspended in culture medium (neurobasal A with 2% B27 supplement, 0.5 mM L-glutamine, 50 U/ml penicillin, and 50 μg/ml streptomycin) and plated onto poly-L-lysine-coated culture plates with an appropriate density. Aβ or H2O2 was added to the cultured medium at day 5 cultured neurons.
# Primary cultured neurons derived from nonTg and CypD-deficient mice were incubated with 2 μM oligomeric Aβ, or H2O2 for various time points. The mitochondrial ROS was detected with 1 μM MitoSox staining The cytochrome c release was assessed by ELISA (Active Motif). Mitochondrial membrane potential was determined by TMRM labeling and analyzed by flow cytometry as described above. Apoptosis was assessed by TUNEL assay using in situ cell death detection kit (Roche).
Structure (SMILES),"mitochondrial membrane potential ΔΨm (TMRM) (FCCP (1 μM), nonTg and CypD−/− neurons)","TMRM-positive neurons after H2O2 (CypD−/− neurons, from 73% before)","TMRM-positive neurons after H2O2 (nonTg neurons, from 73.8% before)"
"N#CC(C#N)=NNc1ccc(OC(F)(F)F)cc1 [FCCP, carbonyl cyanide p-(trifluoromethoxy) phenylhydrazone]",able to dissipate mitochondria ΔΨ; also recorded: dissipated membrane ΔΨm,–,–
OO [H2O2],–,32%,5.5%
